Like-named read-outs stand apart in the source and are kept apart here. Where a SMILES comes first, the peptide text is derived from it. Bridges are numbered along the chain shown (N, C = ends). [ ]: non-standard residue; d: D form. The star is where a group is joined. hPhe(3-Cl-4-CF3) = N[C@@H](CCc1ccc(C(F)(F)F)c(Cl)c1)C(=O)O; NPrPhe(4-CF3) = CCCN[C@@H](Cc1ccc(C(F)(F)F)cc1)C(=O)O; NMeGly(cPent) = CN[C@H](C(=O)O)C1CCCC1; cisHyp = O=C(O)[C@@H]1C[C@H](O)CN1; NMeD = CN[C@@H](CC(=O)O)C(=O)O; NMeL = CN[C@@H](CC(C)C)C(=O)O; Morpholide = C1CN(*)CCO1; Ac5c = NC1(C(=O)O)CCCC1; Sar = CNCC(=O)O
Tests used:
[1] = target: GDP-bound KRAS wild-type protein (Homo sapiens, UniProt P01116); test: Binding to KRAS by surface plasmon resonance (SPR), Single Cycle Kinetics; details: GDP-bound KRAS wild-type protein, read-out: KRAS KD
Chain of GDP-bound KRAS wild-type protein (P01116 whole entry): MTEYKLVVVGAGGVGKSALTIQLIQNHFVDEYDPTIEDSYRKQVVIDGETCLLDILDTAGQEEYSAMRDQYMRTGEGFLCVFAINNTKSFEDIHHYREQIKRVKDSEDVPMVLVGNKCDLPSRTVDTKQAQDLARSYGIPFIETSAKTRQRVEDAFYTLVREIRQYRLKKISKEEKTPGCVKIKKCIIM

[2] = target: GDP-bound HRAS wild-type protein (Homo sapiens, UniProt P01112); test: Binding to HRAS by surface plasmon resonance (SPR), Single Cycle Kinetics; details: for HRAS/KRAS (ratio of KD value for HRAS to KD value for KRAS): SPR, GDP-bound HRAS wild-type protein vs GDP-bound KRAS wild-type protein; for HRAS/KRAS (ratio of KD value with respect to GDP-bound HRAS wild-type protein to KD value with respect to KRAS): SPR KD ratio HRAS/KRAS, class symbols
Chain of GDP-bound HRAS wild-type protein (P01112 whole entry): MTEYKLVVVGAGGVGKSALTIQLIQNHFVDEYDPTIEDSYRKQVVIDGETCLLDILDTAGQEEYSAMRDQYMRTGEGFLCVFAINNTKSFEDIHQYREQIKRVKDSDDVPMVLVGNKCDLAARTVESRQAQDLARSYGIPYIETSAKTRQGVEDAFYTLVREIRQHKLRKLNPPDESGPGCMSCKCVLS

[3] = test system: human lung cancer strain NCI-H441;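 note: cell proliferation inhibition after four days measured by CellTiter-Glo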
[4] = target: GDP-bound NRAS wild-type protein (Homo sapiens, UniProt P01111); test: Binding to NRAS by surface plasmon resonance (SPR), Single Cycle Kinetics; details: for NRAS/KRAS (ratio of KD value for NRAS to KD value for KRAS): SPR, GDP-bound NRAS wild-type protein vs GDP-bound KRAS wild-type protein; for NRAS/KRAS (ratio of KD value with respect to GDP-bound NRAS wild-type protein to KD value with respect to KRAS): SPR KD ratio NRAS/KRAS, class symbols
Chain of GDP-bound NRAS wild-type protein (P01111 whole entry): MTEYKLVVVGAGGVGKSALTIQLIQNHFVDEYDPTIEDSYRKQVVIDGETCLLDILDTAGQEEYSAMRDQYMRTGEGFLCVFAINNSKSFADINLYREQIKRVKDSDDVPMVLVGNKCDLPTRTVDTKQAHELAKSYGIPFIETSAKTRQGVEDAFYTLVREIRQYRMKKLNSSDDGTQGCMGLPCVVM

[5] = SPR Single Cycle Kinetics, 1:1 binding model
[6] = SPR, Single Cycle Kinetics, 1:1 binding model

## CC[C@H](C)[C@@H]1NC(=O)[C@H](COC)N(C)C(=O)C[C@@H](C(=O)N(C)C)N(C)C(=O)[C@H](C2CCCC2)N(C)C(=O)C2(CC(C)(C)C2)NC(=O)[C@@H]2C[C@H](C)CN2C(=O)[C@H](CCc2ccc(C(F)(F)F)c(OC)c2)NC(=O)CN(C)C(=O)[C@H](Cc2ccc(C)cc2)N2CC/C=C\C[C@@H](C2=O)N(C)C(=O)CN(C)C1=O [PP2385]
[1]; SPR, Single Cycle Kinetics
  Kd: 0.12 nM
[2]
  HRAS/KRAS (ratio of KD value for HRAS to KD value for KRAS): B (a compound having 3 or more and less than 10 is denoted as B)
[3]
  IC50: 7.8 nM
[4]
  NRAS/KRAS (ratio of KD value for NRAS to KD value for KRAS): A (a compound having 10 or more and less than 20 is denoted as A)

## CCCN1C(=O)CN(C)C(=O)CN(C)C(=O)[C@H]([C@@H](C)CC)NC(=O)[C@H](CC(C)C)N(C)C(=O)C[C@@H](C(=O)N2CCOCC2)N(C)C(=O)[C@H](C2CCCC2)N(C)C(=O)C2(CCCC2)NC(=O)[C@@H]2C[C@H](O)CN2C(=O)[C@H](CCc2ccc(C(F)(F)F)c(Cl)c2)NC(=O)CN(C)C(=O)[C@@H]1Cc1ccc(C(F)(F)F)cc1 [PP0240] ([NMeL]I[Sar][Sar][NPrPhe(4-CF3)][Sar][hPhe(3-Cl-4-CF3)][cisHyp][Ac5c][NMeGly(cPent)][NMeD]-Morpholide; lactam N-11)
[1]; [5]
  Kd: 0.035 nM
[2]
  HRAS/KRAS (ratio of KD value for HRAS to KD value for KRAS): C (A compound having a KD ratio of 0.1 or more and less than 3 is denoted as C)
[3]
  IC50: 7.9 nM
[4]
  NRAS/KRAS (ratio of KD value for NRAS to KD value for KRAS): B (a compound having 3 or more and less than 10 is denoted as B)

## CCO[C@@H]1C[C@H]2C(=O)NC3(CCCC3)C(=O)N(C)[C@@H](C3CCCC3)C(=O)N(C)[C@H](C(=O)N(C)C)CC(=O)N(C)[C@@H](CC)C(=O)N[C@@H]([C@@H](C)CC)C(=O)N(C)CC(=O)N(C)[C@H]3CC[C@@H](C)CN(C3=O)[C@@H](Cc3ccc(C(F)(F)F)cc3)C(=O)N(C)CC(=O)N[C@@H](CCc3cc(F)c(C(F)(F)F)c(F)c3)C(=O)N2C1 [PP1370]
[1]; [6]
  Kd: 0.057 nM
[2]; KD ratio class
  HRAS/KRAS (ratio of KD value for HRAS to KD value for KRAS): C (A compound having a KD ratio of 0.1 or more and less than 3 is denoted as C)
[3]
  IC50: 2.3 nM
[4]; KD ratio class
  NRAS/KRAS (ratio of KD value for NRAS to KD value for KRAS): C (A compound having a KD ratio of 0.1 or more and less than 3 is denoted as C)

## CC[C@H](C)[C@@H]1NC(=O)[C@H](CC)N(C)C(=O)C[C@@H](C(=O)N2CCOCC2)N(C)C(=O)[C@H](C2CCCC2)N(C)C(=O)C2(CCC2)NC(=O)[C@@H]2CCCN2C(=O)[C@H](CCc2cc(F)c(C(F)(F)F)c(F)c2)NC(=O)CN(C)C(=O)[C@H](Cc2ccc(C(F)(F)F)cc2)N2C[C@H](C)[C@H](C)C[C@@H](C2=O)N(C)C(=O)CN(C)C1=O [PP1366]
[1]; [6]
  Kd: 0.11 nM
[2]; KD ratio class
  HRAS/KRAS (ratio of KD value for HRAS to KD value for KRAS): B (a compound having 3 or more and less than 10 is denoted as B)
[3]
  IC50: 14 nM
[4]; KD ratio class
  NRAS/KRAS (ratio of KD value for NRAS to KD value for KRAS): A (a compound having 10 or more and less than 20 is denoted as A)

## CCOC[C@H]1C(=O)N[C@@H]([C@@H](C)CC)C(=O)N(C)CC(=O)N(C)[C@H]2C/C=C\CCN(C2=O)[C@@H](Cc2ccc(C)cc2)C(=O)N(C)CC(=O)N[C@@H](CCc2ccc(C(F)(F)F)c(OC)c2)C(=O)N2C[C@H](OCC)C[C@H]2C(=O)NC2(CC(C)(C)C2)C(=O)N(C)[C@@H](C2CCCC2)C(=O)N(C)[C@H](C(=O)N(CC)CC)CC(=O)N1C [PP2406]
[1]; SPR, Single Cycle Kinetics
  Kd: 0.29 nM
[2]
  HRAS/KRAS (ratio of KD value for HRAS to KD value for KRAS): A (a compound having 10 or more and less than 20 is denoted as A)
[3]
  IC50: 21.3 nM
[4]
  NRAS/KRAS (ratio of KD value for NRAS to KD value for KRAS): A (a compound having 10 or more and less than 20 is denoted as A)

## CC[C@H](C)[C@@H]1NC(=O)[C@H](CC)N(C)C(=O)C[C@@H](C(=O)N2CCOCC2)N(C)C(=O)[C@H](C2CCCC2)N(C)C(=O)C2(CCCC2)NC(=O)[C@@H]2CCCN2C(=O)[C@H](CCc2cc(F)c(C(F)(F)F)c(F)c2)NC(=O)CN(C)C(=O)[C@H](Cc2ccc(C(F)(F)F)cc2)N2C[C@H](C)[C@H](C)C[C@@H](C2=O)N(C)C(=O)CN(C)C1=O [PP1365]
[1]; [6]
  Kd: 0.13 nM
[2]; KD ratio class
  HRAS/KRAS (ratio of KD value for HRAS to KD value for KRAS): B (a compound having 3 or more and less than 10 is denoted as B)
[3]
  IC50: 4.2 nM
[4]; KD ratio class
  NRAS/KRAS (ratio of KD value for NRAS to KD value for KRAS): A (a compound having 10 or more and less than 20 is denoted as A)

## CCO[C@@H]1C[C@H]2C(=O)NC3(CC(C)(C)C3)C(=O)N(C)[C@@H](C3CCCC3)C(=O)N(C)[C@H](C(=O)N3CCCCC3)CC(=O)N(C)[C@@H](COC)C(=O)N[C@@H]([C@@H](C)CC)C(=O)N(C)CC(=O)N(C)[C@H]3C/C=C\CCN(C3=O)[C@@H](Cc3ccc(C(F)(F)F)cc3)C(=O)N(C)CC(=O)N[C@@H](CCc3ccc(Cl)c(Cl)c3)C(=O)N2C1 [PP2670]
[1]; [5]
  Kd: 0.48 nM
[2]
  HRAS/KRAS (ratio of KD value with respect to GDP-bound HRAS wild-type protein to KD value with respect to KRAS): A (a compound having 10 or more and less than 20 is denoted as A)
[3]
  IC50: 25.2 nM
[4]
  NRAS/KRAS (ratio of KD value with respect to GDP-bound NRAS wild-type protein to KD value with respect to KRAS): AA (a compound having 20 or more is denoted as AA)

## CCO[C@@H]1C[C@H]2C(=O)NC3(CC(C)(C)C3)C(=O)N(C)[C@@H](C(CC)CC)C(=O)N(C)[C@H](C(=O)N(C)C)CC(=O)N(C)[C@H]3CCC/C=C/c4ccc(cc4)C[C@@H](C(=O)N(C)CC(=O)N[C@@H](CCc4cc(F)c(C(F)(F)F)c(F)c4)C(=O)N2C1)N1CC/C=C\C[C@@H](C1=O)N(C)C(=O)CN(C1CC1)C(=O)[C@H]([C@@H](C)CC)NC3=O [PP2955]
[1]; [5]
  Kd: 0.14 nM
[2]
  HRAS/KRAS (ratio of KD value with respect to GDP-bound HRAS wild-type protein to KD value with respect to KRAS): A (a compound having 10 or more and less than 20 is denoted as A)
[3]
  IC50: 7.7 nM
[4]
  NRAS/KRAS (ratio of KD value with respect to GDP-bound NRAS wild-type protein to KD value with respect to KRAS): A (a compound having 10 or more and less than 20 is denoted as A)

## CC[C@H](C)[C@@H]1NC(=O)[C@H](CC)N(C)C(=O)C[C@@H](C(=O)N(C)C)N(C)C(=O)[C@H](C2CCCC2)N(C)C(=O)C2(CCC2)NC(=O)[C@@H]2C[C@H](F)CN2C(=O)[C@H](CCc2cc(F)c(C(F)(F)F)c(F)c2)NC(=O)CN(C)C(=O)[C@H](Cc2ccc(C(F)(F)F)cc2)N2CC/C=C\C[C@@H](C2=O)N(C)C(=O)CN(C)C1=O [PP1132, (2S,8S,12S,14S,20S,23S,27S,30S,36S,38Z)-20-cyclopentyl-8-[2-[3,5-difluoro-4-(trifluoromethyl)phenyl]ethyl]-27-ethyl-12-fluoro-N,N,4,19,22,26,32,35-octamethyl-30-[(1S)-1-methylpropyl]-3,6,9,15,18,21,25,28,31,34,42-undecaoxo-2-[[4-(trifluoromethyl)phenyl]methyl]spiro[1,4,7,10,16,19,22,26,29,32,35-undecazatricyclo[34.5.1.0^10,14]dotetracont-38-ene-17,1′-cyclobutane]-23-carboxamide]
[1]; SPR, Single Cycle Kinetics
  Kd: 0.066 nM
[2]
  HRAS/KRAS (ratio of KD value for HRAS to KD value for KRAS): B (a compound having 3 or more and less than 10 is denoted as B)
[3]
  IC50: 86.8 nM
[4]
  NRAS/KRAS (ratio of KD value for NRAS to KD value for KRAS): A (a compound having 10 or more and less than 20 is denoted as A)

## CCCOC[C@H]1C(=O)N[C@@H]([C@@H](C)CC)C(=O)N(C)CC(=O)N(C)[C@H]2C/C=C\CCN(C2=O)[C@@H](CC2CCCCC2)C(=O)N(C)CC(=O)N[C@@H](CCc2cc(F)c(C(F)(F)F)c(F)c2)C(=O)N2C[C@H](OCC)C[C@H]2C(=O)NC2(CC(C)(C)C2)C(=O)N(C)[C@@H](C(CC)CC)C(=O)N(C)[C@H](C(=O)N(C)C)CC(=O)N1C [PP2501]
[1]; SPR, Single Cycle Kinetics
  Kd: 1.8 nM
[2]
  HRAS/KRAS (ratio of KD value for HRAS to KD value for KRAS): A (a compound having 10 or more and less than 20 is denoted as A)
[3]
  IC50: 180 nM
[4]
  NRAS/KRAS (ratio of KD value for NRAS to KD value for KRAS): AA (a compound having 20 or more is denoted as AA)
